In patent US6737383B1, “Herbicidal oxadiazolidines” (priority 1999, dated 2004):

What was measured:
[1] = tested on: Russian thistle; assay: Test E Russian thistle; type: in vivo, Salsola kali; conditions: Postemergence; for Plant response rating, Russian thistle: 0 to 100 scale
Procedure: […] A mixture of sandy loam soil and greenhouse potting mix in a 60:40 ratio was used for the postemergence test.
(§1) Plantings of these crops and weed species were adjusted to produce plants of appropriate size for the postemergence test. All plant species were grown using normal greenhouse practices. Crop and weed species include annual bluegrass (Poa annua), blackgrass (Alopecurus myosuroides), black nightshade (Solanum nigra), chickweed (Stellaria media), common poppy (Papaver rhoeas), deadnettle (Lamium amplexicaule), downy brome (Bromus tectorum), field violet (Viola arvensis), galium (Galium aparine), green foxtail (Setaria viridis), Italian ryegrass (Lolium multiflorum), jointed goatgrass (Aegilops cylindrica), kochia (Kochia scoparia), lambsquarters (Chenopodium album), littleseed canarygrass (Phalaris minor), rape (Brassica napus), redroot pigweed (Amaranthus retroflexus), Russian thistle (Salsola kali), scentless chamomile (Matricaria inodora), spring barley (Hordeum vulgare), sugar beet (Beta vulgaris), sunflower (Helianthus annuus), ivyleaf speedwell (Veronica hederaefolia), spring wheat (Triticum aestivum), winter wheat (Triticum aestivum), wild buckwheat (Polygonum convolvulus), wild mustard (Sinapis arvensis), wild oat (Avena fatua), windgrass (Apera spica-venti) and winter barley (Hordeum vulgare).
(§2) Treated plants and untreated controls were maintained in a greenhouse for approximately 21 to 28 days, after which all treated plants were compared to untreated controls and visually evaluated. […] A dash response (-) means no test result.

[2] = tested on: goosegrass; assay: Test D goosegrass; type: in vivo, Eleusine indica; conditions: Postemergence, 0 to 100 scale
[3] = tested on: deadnettle; assay: Test E deadnettle; type: in vivo, Lamium amplexicaule; conditions: Preemergence
[4] = tested on: wild buckwheat; assay: Test E wild buckwheat; type: in vivo, Polygonum convolvulus; conditions: Preemergence
[5] = tested on: winter barley; assay: Test E winter barley; type: in vivo, Hordeum vulgare; conditions: Postemergence; for Plant response rating, Barley (winter): 0 to 100 scale
Procedure: (§3) Compounds evaluated in this test were formulated in a non-phytotoxic solvent mixture which included a surfactant and applied to plants that were in the 1- to 4-leaf stage (postemergence application). A mixture of sandy loam soil and greenhouse potting mix in a 60:40 ratio was used for the postemergence test.
as §1, §2

[6] = tested on: wild buckwheat; assay: Test E wild buckwheat; type: in vivo, Polygonum convolvulus; conditions: Postemergence; for Plant response rating, Wild buckwheat: 0 to 100 scale
How it was run: (§4)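 Compound formulated with surfactant in a non-phytotoxic solvent (postemergence: young 1- to 4-leaf plants); held in greenhouse approx. 21–28 days; visual assessment against untreated plants.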

[7] = tested on: galium; assay: Test E galium; type: in vivo, Galium aparine; conditions: Preemergence
[8] = tested on: rape; assay: Test E rape; type: in vivo, Brassica napus; conditions: Preemergence
[9] = tested on: wild mustard; assay: Test E wild mustard; type: in vivo, Sinapis arvensis; conditions: Preemergence
[10] = tested on: guineagrass; assay: Test D guineagrass; type: in vivo, Panicum maximum; conditions: Postemergence, 0 to 100 scale
[11] = tested on: Italian ryegrass; assay: Test E Italian ryegrass; type: in vivo, Lolium multiflorum; conditions: Postemergence; for Plant response rating, I. Ryegrass: 0 to 100 scale
Procedure: as §3, §1, §2

[12] = tested on: large crabgrass; assay: Test D large crabgrass; type: in vivo, Digitaria sanguinalis; conditions: Postemergence, 0 to 100 scale
[13] = tested on: Johnson grass; assay: Test D Johnson grass; type: in vivo, Sorghum halepense; conditions: Postemergence, 0 to 100 scale
[14] = tested on: spring wheat; assay: Test E spring wheat; type: in vivo, Triticum aestivum; conditions: Postemergence; for Plant response rating, Spring Wheat: 0 to 100 scale
Procedure: as §3, §1, §2

[15] = tested on: jointed goatgrass; assay: Test E jointed goatgrass; type: in vivo, Aegilops cylindrica; conditions: Preemergence
[16] = tested on: downy brome; assay: Test E downy brome; type: in vivo, Bromus tectorum; conditions: Preemergence
[17] = tested on: pitted morningglory; assay: Test D pitted morningglory; type: in vivo, Ipomoea lacunosa; conditions: Postemergence, 0 to 100 scale
[18] = tested on: kochia; assay: Test E kochia; type: in vivo, Kochia scoparia; conditions: Postemergence; for Plant response rating, Kochia: 0 to 100 scale
Procedure: as §3, §1, §2

[19] = tested on: Russian thistle; assay: Test E Russian thistle; type: in vivo, Salsola kali; conditions: Preemergence
[20] = tested on: lambsquarters; assay: Test E lambsquarters; type: in vivo, Chenopodium album; conditions: Postemergence; for Plant response rating Lambsquarters: 0 to 100 scale
Procedure: as §3, §1, §2

[21] = tested on: deadnettle; assay: Test E deadnettle; type: in vivo, Lamium amplexicaule; conditions: Postemergence, 0 to 100 scale
How it was run: as §4

[22] = tested on: black nightshade; assay: Test E black nightshade; type: in vivo, Solanum nigra; conditions: Preemergence
[23] = tested on: common poppy; assay: Test E common poppy; type: in vivo, Papaver rhoeas; conditions: Postemergence
Procedure: as §3, §1, §2

[24] = Rate 500 g/ha, 0 no effect, 100 complete control
[25] = Rate 250 g/ha, 0 to 100 scale where 0 is no effect and 100 is complete control
[26] = Rate 64 g/ha, 0 no injury, 100 complete control
[27] = Rate 125 g/ha, 0 no injury, 100 complete control
[28] = Rate 125 g/ha, 0 to 100 scale (0 no effect, 100 complete control)
[29] = Rate 500 g/ha, 0 to 100 scale where 0 is no effect and 100 is complete control

C=CCn1c(=O)on(C(=O)N(c2ccc(F)cc2)C(C)C)c1=O [Compound 146]
Plant response rating, Russian thistle ([1]; Rate 62 g/ha): 20 | Plant response rating, Russian thistle ([1]; Rate 125 g/ha): 0 | Plant response rating, Russian thistle [1, 24]: 0 | Russian thistle plant response rating [1, 25]: 0 | Plant response rating, Goosegrass [2, 26]: 0 | Plant response rating, Goosegrass [2, 27]: 35 | Plant response rating, Goosegrass ([2]; Rate 250 g/ha): 30 | Plant response rating, Goosegrass ([2]; Rate 500 g/ha): 80 | Plant response rating, Deadnettle [3, 28]: 40 | Deadnettle plant response rating (0 to 100 scale) ([3]; Rate 250 g/ha): 40 | Plant response rating, Deadnettle [3, 29]: 50 | Plant response rating, Wild buckwheat [4, 28]: 70 | Wild buckwheat plant response rating (0 to 100 scale) ([4]; Rate 250 g/ha): 85 | Plant response rating, Wild buckwheat [4, 29]: 100 | Plant response rating, Barley (winter) ([5]; Rate 62 g/ha): 5 | Plant response rating, Barley (winter) ([5]; Rate 125 g/ha): 10 | Plant response rating, Barley (winter) [5, 24]: 20 | Barley (winter) plant response rating [5, 25]: 10 | Plant response rating, Wild buckwheat ([6]; Rate 62 g/ha): 20 | Plant response rating, Wild buckwheat ([6]; Rate 125 g/ha): 0 | Plant response rating, Wild buckwheat [6, 24]: 50 | Wild buckwheat plant response rating [6, 25]: 10 | Plant response rating, Galium [7, 28]: 40 | Galium plant response rating (0 to 100 scale) ([7]; Rate 250 g/ha): 50 | Plant response rating, Galium [7, 29]: 95 | Plant response rating, Rape [8, 28]: 60 | Rape plant response rating (0 to 100 scale) ([8]; Rate 250 g/ha): 80 | Plant response rating, Rape [8, 29]: 60 | Plant response rating, Wild mustard [9, 28]: 60 | Wild mustard plant response rating (0 to 100 scale) ([9]; Rate 250 g/ha): 95 | Plant response rating, Wild mustard [9, 29]: 100 | Plant response rating, Guineagrass [10, 26]: 10 | Plant response rating, Guineagrass [10, 27]: 10 | Plant response rating, Guineagrass ([10]; Rate 250 g/ha): 35 | Plant response rating, Guineagrass ([10]; Rate 500 g/ha): 60 | Plant response rating, I. Ryegrass ([11]; Rate 62 g/ha): 50 | Plant response rating, I. Ryegrass ([11]; Rate 125 g/ha): 10 | Plant response rating, I. Ryegrass [11, 24]: 50 | I. Ryegrass plant response rating [11, 25]: 10 | Plant response rating Large crabgrass [12, 26]: 20 | Plant response rating Large crabgrass [12, 27]: 20 | Plant response rating Large crabgrass ([12]; Rate 250 g/ha): 50 | Plant response rating Large crabgrass ([12]; Rate 500 g/ha): 65 | Plant response rating Johnsongrass [13, 26]: 20 | Plant response rating Johnsongrass [13, 27]: 35 | Plant response rating Johnsongrass ([13]; Rate 250 g/ha): 50 | Plant response rating Johnsongrass ([13]; Rate 500 g/ha): 65 | Plant response rating, Spring Wheat ([14]; Rate 62 g/ha): 10 | Plant response rating, Spring Wheat ([14]; Rate 125 g/ha): 10 | Plant response rating, Spring Wheat [14, 24]: 20 | Spring Wheat plant response rating [14, 25]: 10 | Plant response rating, Jointed goatgra [15, 28]: 45 | Jointed goatgra plant response rating (0 to 100 scale) ([15]; Rate 250 g/ha): 50 | Plant response rating, Jointed goatgra [15, 29]: 50 | Plant response rating, Downy brome [16, 28]: 60 | Downy brome plant response rating (0 to 100 scale) ([16]; Rate 250 g/ha): 0 | Plant response rating, Downy brome [16, 29]: 60 | Plant response rating, P. morninglory [17, 26]: 30 | Plant response rating, P. morninglory [17, 27]: 40 | Plant response rating, P. morninglory ([17]; Rate 250 g/ha): 50 | Plant response rating, P. morninglory ([17]; Rate 500 g/ha): 65 | Plant response rating, Kochia ([18]; Rate 62 g/ha): 30 | Plant response rating, Kochia ([18]; Rate 125 g/ha): 10 | Plant response rating, Kochia [18, 24]: 40 | Kochia plant response rating [18, 25]: 10 | Plant response rating, Russian thistle [19, 28]: 0 | Russian thistle plant response rating (0 to 100 scale) ([19]; Rate 250 g/ha): 0 | Plant response rating, Russian thistle [19, 29]: 10 | Plant response rating Lambsquarters ([20]; Rate 62 g/ha): 50 | Plant response rating Lambsquarters ([20]; Rate 125 g/ha): 20 | Plant response rating Lambsquarters [20, 24]: 50 | Lambsquarters plant response rating [20, 25]: 10 | Plant response rating, Deadnettle ([21]; Rate 62 g/ha): 50 | Plant response rating, Deadnettle ([21]; Rate 125 g/ha): 10 | Plant response rating, Deadnettle [21, 24]: 20 | Plant response rating, Blk nightshade [22, 28]: 85 | Blk nightshade plant response rating (0 to 100 scale) ([22]; Rate 250 g/ha): 10 | Plant response rating, Blk nightshade [22, 29]: 100 | Plant response rating, Common poppy ([23]; Rate 62 g/ha, 0 to 100 scale): 60 | Plant response rating, Comnion poppy ([23]; Rate 125 g/ha, 0 to 100 scale): 10 | Plant response rating, Common poppy ([23]; Rate 500 g/ha, 0 to 100 scale, 0 no effect, 100 complete control): 10 | Common poppy plant response rating [23, 25]: 0
